Calls of active or inactive are those of the source. The rule behind the calls is not given here.
Experiments:
[1] = test system: Ca-Ski; test: Induction of necrosis of human CaSki cells assessed as LDH accumulation in culture supernatant at IC50 after 24 hrs by INT assay; type: functional
[2] = test system: Ca-Ski; test: Cell cycle arrest in human CaSki cells assessed as DNA accumulation at S phase at IC50 after 24 hrs using propidium iodide staining by flow cytometry; type: functional, cell-based
[3] = test system: PBMC; test: Effect on enriched human PBMC proliferation assessed as proliferating cells at IC50 after 72 hrs using CSFE labeling by flow cytometry; type: functional
[4] = test system: Ca-Ski; test: Induction of apoptosis in human CaSki cells assessed as increase in active caspase-3 expression at IC50 after 24 hrs by immunocytochemistry; type: functional, cell-based
[5] = test system: Ca-Ski; test: Antiproliferative activity against human CaSki cells after 24 hrs using crystal violet staining by ELISA; type: functional, cell-based
[6] = test system: Ca-Ski; test: Cell cycle arrest in human CaSki cells assessed as DNA accumulation at G1 phase at IC50 after 24 hrs using propidium iodide staining by flow cytometry; type: functional, cell-based
[7] = test system: Ca-Ski; test: Induction of apoptosis in human CaSki cells assessed as fragmentation of genomic DNA at IC50 after 24 hrs by TUNEL assay; type: functional, cell-based
[8] = test system: Ca-Ski; test: Effect on human CaSki cell morphology assessed as formation of large cells at IC50 after 24 hrs by microscopy; type: functional, cell-based
[9] = Cytotoxicity against human fibroblast cells at IC50 after 24 hrs by crystal violet staining; type: cell-based
[10] = test system: PBMC; test: Induction of enriched human PBMC proliferation assessed as non-proliferating cells at IC50 after 72 hrs using CSFE labeling by flow cytometry; type: functional
[11] = test system: Ca-Ski; test: Cell cycle arrest in human CaSki cells assessed as DNA accumulation at G2/M phase at IC50 after 24 hrs using propidium iodide staining by flow cytometry; type: functional, cell-based
[12] = Induction of necrosis of PHA-activated human lymphocytes assessed as LDH accumulation in culture supernatant at IC50 after 72 hrs by INT assay; type: cell-based; settings: lymphocyte
[13] = test system: Ca-Ski; test: Induction of apoptosis in human CaSki cells assessed as appearance of apoptotic bodies at IC50 after 24 hrs by DAPI staining; type: functional, cell-based
[14] = test system: Ca-Ski; test: Effect on human CaSki cell morphology assessed as formation of non-reflective small inclusion bodies at IC50 after 24 hrs by microscopy; type: functional, cell-based
[15] = test system: Ca-Ski; test: Cell cycle arrest in human CaSki cells assessed as DNA accumulation at sub G1 phase at IC50 after 24 hrs using propidium iodide staining by flow cytometry; type: functional, cell-based
[16] = test system: Ca-Ski; test: Induction of apoptosis in human CaSki cells assessed as chromatin condensation at IC50 after 24 hrs by DAPI staining; type: functional, cell-based
[17] = test system: Ca-Ski; test: Effect on human CaSki cell morphology assessed as formation of small spherical cells at IC50 after 24 hrs by microscopy; type: functional, cell-based

Compound: CC(=O)O[C@H]1CC[C@@]2(C)[C@@H](CC[C@@H]3[C@@H]2CC(=O)[C@]2(C)[C@@H]([C@H](C)C(=O)CC[C@@H](C)CO)[C@@H](OC(C)=O)C[C@@H]32)C1
- Activity [1]: 28%
- Activity [2]: Active
- Activity [3]: 63.68%
- Activity [4]: Active
- Activity [5]: Dose-dependent effect
- IC50 [5]: 188 µM
- Activity [6]: inactive
- Activity [7]: Active
- Activity [8]: Active
- Activity [9]: 18%
- Activity [10]: 36.34%
- Activity [11]: inactive
- Activity [12]: Not Active
- Activity [13]: Active
- Activity [14]: Active
- Activity [15]: Active

Compound: CC(=O)O[C@H]1CC[C@@]2(C)C(=CC[C@H]3[C@@H]4C[C@H](OC(C)=O)[C@H]([C@H](C)C(=O)CC[C@@H](C)CO)[C@@]4(C)CC[C@@H]32)C1
- Activity [1]: inactive
- Activity [2]: Active
- Activity [3]: 76.15%
- Activity [4]: Active
- Activity [5]: Dose-dependent effect
- IC50 [5]: 47.1 µM
- Activity [6]: Active
- Activity [7]: inactive
- Activity [16]: Active
- Activity [17]: Active
- Activity [9]: Not Active
- Activity [10]: 23.85%
- Activity [11]: Active
- Activity [12]: Not Active
- Activity [15]: Active

Reference: ChEMBL document CHEMBL1156164, “Synthesis of 26-hydroxy-22-oxocholestanic frameworks from diosgenin and hecogenin and their in vitro antiproliferative and apoptotic activity on human cervical cancer CaSki cells” (Bioorg Med Chem, 2010)
